This note sets out measurements from patent US20250145585A1, “HETEROCYCLIC INHIBITORS OF IGF-1R FOR TREATMENT OF DISEASE” (HORIZON THERAPEUTICS IRELAND DAC, priority 2023, published 2025).

T1 sequence (P08069 31-1367): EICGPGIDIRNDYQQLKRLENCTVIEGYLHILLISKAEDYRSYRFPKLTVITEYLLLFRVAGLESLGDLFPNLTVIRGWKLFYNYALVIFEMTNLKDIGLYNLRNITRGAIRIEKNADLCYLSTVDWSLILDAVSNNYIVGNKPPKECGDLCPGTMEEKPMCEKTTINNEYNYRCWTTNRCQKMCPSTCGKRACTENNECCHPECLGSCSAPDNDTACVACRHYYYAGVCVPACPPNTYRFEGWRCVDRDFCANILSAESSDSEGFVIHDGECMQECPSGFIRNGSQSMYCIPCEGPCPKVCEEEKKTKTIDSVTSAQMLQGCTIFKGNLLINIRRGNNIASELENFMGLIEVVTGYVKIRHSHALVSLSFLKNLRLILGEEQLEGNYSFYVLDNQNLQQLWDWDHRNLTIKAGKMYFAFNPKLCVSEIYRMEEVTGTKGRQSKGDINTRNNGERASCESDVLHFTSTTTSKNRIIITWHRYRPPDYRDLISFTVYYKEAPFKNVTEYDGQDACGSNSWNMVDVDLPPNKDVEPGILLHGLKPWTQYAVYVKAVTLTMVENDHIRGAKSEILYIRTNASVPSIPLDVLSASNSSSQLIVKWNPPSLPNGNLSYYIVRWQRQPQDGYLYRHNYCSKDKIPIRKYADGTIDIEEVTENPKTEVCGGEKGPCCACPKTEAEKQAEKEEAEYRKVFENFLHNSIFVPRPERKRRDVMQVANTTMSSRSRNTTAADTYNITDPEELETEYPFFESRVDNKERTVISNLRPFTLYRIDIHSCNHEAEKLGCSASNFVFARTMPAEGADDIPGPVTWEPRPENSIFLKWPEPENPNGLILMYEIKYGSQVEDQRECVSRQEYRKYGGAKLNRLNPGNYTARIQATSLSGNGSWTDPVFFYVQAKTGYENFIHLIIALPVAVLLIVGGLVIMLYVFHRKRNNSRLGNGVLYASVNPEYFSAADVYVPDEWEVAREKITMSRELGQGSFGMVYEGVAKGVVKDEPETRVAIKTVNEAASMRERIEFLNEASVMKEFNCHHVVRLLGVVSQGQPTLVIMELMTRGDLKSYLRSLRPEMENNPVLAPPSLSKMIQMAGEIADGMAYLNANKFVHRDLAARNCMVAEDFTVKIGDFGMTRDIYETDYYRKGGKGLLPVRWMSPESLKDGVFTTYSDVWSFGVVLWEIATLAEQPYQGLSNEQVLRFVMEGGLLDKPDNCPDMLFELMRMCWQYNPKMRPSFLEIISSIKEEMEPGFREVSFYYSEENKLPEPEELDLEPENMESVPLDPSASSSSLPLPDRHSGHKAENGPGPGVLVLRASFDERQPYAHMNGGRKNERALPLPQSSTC

The experiment has as its target T1, IGF-1R (Homo sapiens, UniProt P08069).
T1 construct: expressed in transfected cells
In words: Example B-2: IGF-1R Assay (PathHunter cell lines, EC80 agonist challenge, chemiluminescent detection). Format: cell-based. To be noted: PathHunter cells, compound 60 minutes at 37° C., EC80 agonist 3 hours; read-out: IC50, Biological Activity against IGF-1R (Table B2). Here is the method: PathHunter cell lines were expanded from freezer stocks according to standard procedures. Cells were seeded in a total volume of 20 μL into white walled, 384-well microplates and incubated for the appropriate time prior to testing.
Cells are pre-incubated with compound followed by EC80 agonist challenge as follows: • R. 1. Intermediate dilution of sample stocks was performed to generate 5× sample in assay buffer. • 2. 5 μL of 5× sample was added to cells and incubated at 37° C. for 60 minutes. Vehicle concentration was 1%. • 3. 5 IL of 6× EC80 agonist in assay buffer was added to the cells and incubated at room temperature for 3 hours.
Assay signal was generated through a single addition of 12.5 or 15 μL (50% v/v) of PathHunter Detection reagent cocktail for agonist and antagonist assays respectively, followed by a one hour incubation at room temperature. Microplates were read following signal generation with a PerkinElmer Envision™ instrument for chemilumine-scent signal detection.
Compound activity was analyzed using CBIS data analysis suite (ChemInnovation, CA). Percentage inhibition was calculated using the following formula: % Inhibition=100%×(1−(mean RLU of test sample−mean RLU of vehicle control)/(mean RLU of EC80 control−mean RLU of vehicle control)). The activity for representative examples of the invention is shown in the following table, wherein A: IC50≤500 nM; B: 500 nM<IC50≤2 μM; C: 2 μM<IC50≤10 μM; D: IC50>10 μM.
In the case of `CC1(C)C(=O)N(c2cc3c(cc2Br)C2(CCC2)CO3)C(=O)N1Cc1ccnc2c1CC(=O)N2` [Compound 52, 3-(5-bromo-2H-spiro[benzofuran-3,1′-cyclobutan]-6-yl)-5,5-dimethyl-1-((2-oxo-2,3-dihydro-1H-pyrrolo[2,3-b]pyridin-4-yl)methyl)imidazolidine-2,4-dione], the IC50 was ≤ 0.5 µM. On to `CC1CCc2c(CN3C(=O)N(c4ccc(C5(C(F)(F)F)CC5)cc4)C(=O)C3(C)C)ccnc2N1` (stereo not shown) [Compound 55, 5,5-dimethyl-1-((7-methyl-5,6,7,8-tetrahydro-1,8-naphthyridin-4-yl)methyl)-3-(4-(1-(trifluoromethyl)cyclopropyl)phenyl) imidazolidine-2,4-dione], for which the IC50 is ≤ 0.5 µM. Then `CC(C)(C)C(=O)Oc1cc2c(CN3C(=O)N(c4ccc(C5(C(F)(F)F)CC5)cc4)C(=O)C3(C)C)ccnc2[nH]1` [Compound 77, 4-((5,5-dimethyl-2,4-dioxo-3-(4-(1-(trifluoromethyl)cyclopropyl)phenyl)imidazolidin-1-yl)methyl)-1H-pyrrolo [2,3-b]pyridin-2-yl pivalate], with ≤ 0.5 µM; and `CC1(C)C(=O)N(c2ccc(OC(F)(F)F)c(C#N)c2)C(=O)N1Cc1ccnc2c1CC(=O)N2` [Compound 288, 5-(4,4-dimethyl-2,5-dioxo-3-((2-oxo-2,3-dihydro-1H-pyrrolo[2,3-b]pyridin-4-yl)methyl)imidazolidin-1-yl)-2-(trifluoromethoxy)benzonitrile], with > 10 µM; and `CN1CCC(Nc2cc(CN3C(=O)N(c4ccc(S(=O)(=O)C(F)(F)F)cc4)C(=O)C3(C)C)ccn2)C1=O` (stereo not shown) [Compound 332, 5,5-dimethyl-1-((2-((1-methyl-2-oxopyrrolidin-3-yl)amino)pyridin-4-yl)methyl)-3-(4-((trifluoromethyl)sulfonyl)phenyl) imidazolidine-2,4-dione], with 2 to 10 µM. The figure for `CC1(C)C(=O)N(c2ccc3c(c2)N(C(=O)C2CC2)CC32CC2)C(=O)N1Cc1ccnc2c1CC(=O)N2` [Compound 46, 3-(1′-(cyclopropanecarbonyl)spiro[cyclopropane-1,3′-indolin]-6′-yl)-5,5-dimethyl-1-((2-oxo-2,3-dihydro-1H-pyrrolo[2,3-b]pyridin-4-yl)methyl)imidazolidine-2,4-dione] is ≤ 0.5 µM; for `Cn1nc(C(C)(C)C)c(Br)c1N1C(=O)N(Cc2ccnc3c2CC(=O)N3)C(C)(C)C1=O` [Compound 47, 3-(4-bromo-3-(tert-butyl)-1-methyl-1H-pyrazol-5-yl)-5,5-dimethyl-1-((2-oxo-2,3-dihydro-1H-pyrrolo[2,3-b]pyridin-4-yl)methyl)imidazolidine-2,4-dione] it is 2 to 10 µM; for `CC(C)(C)c1ccc(N2C(=O)N(Cc3ccnc4c3CC(=O)N4)C(C)(C)C2=O)cc1` [Compound 36, 3-(4-(tert-butyl)phenyl)-5,5-dimethyl-1-((2-oxo-2,3-dihydro-1H-pyrrolo[2,3-b]pyridin-4-yl)methyl)imidazolidine-2,4-dione] it is ≤ 0.5 µM.

As for `CC1(c2ccc(N3C(=O)N(Cc4ccnc5c4CC(=O)N5)C(C)(C)C3=O)cc2)CC1` [Compound 48, 5,5-dimethyl-3-(4-(1-methylcyclopropyl)phenyl)-1-((2-oxo-2,3-dihydro-1H-pyrrolo[2,3-b]pyridin-4-yl)methyl)imidazolidine-2,4-dione], the IC50 was ≤ 0.5 µM. The figure for `CC(C)(C#N)c1ccc(N2C(=O)N(Cc3ccnc(NC4CC4)c3)C(C)(C)C2=O)cc1` [Compound 149, 2-(4-(3-((2-(cyclopropylamino)pyridin-4-yl)methyl)-4,4-dimethyl-2,5-dioxoimidazolidin-1-yl)phenyl)-2-methylpropanenitrile] is ≤ 0.5 µM; for `C[C@@H]1COc2c(CN3C(=O)N(c4ccc(S(=O)(=O)C(F)(F)F)cc4)C(=O)C3(C)C)ccnc2N1` [Compound 60, (R)-5,5-dimethyl-1-((3-methyl-3,4-dihydro-2H-pyrido[3,2-b][1,4]oxazin-8-yl)methyl)-3-(4-((trifluoromethyl)sulfonyl)phenyl) imidazolidine-2,4-dione] it is ≤ 0.5 µM; for `CC1(C)COc2cc(N3C(=O)N(Cc4ccnc(NC5CCOCC5)c4)C(C)(C)C3=O)ccc21` [Compound 199, 3-(3,3-dimethyl-2,3-dihydrobenzofuran-6-yl)-5,5-dimethyl-1-((2-((tetrahydro-2H-pyran-4-yl)amino)pyridin-4-yl)methyl)imidazolidine-2,4-dione] it is ≤ 0.5 µM. The figure for `Cn1cncc1CNc1cc(CN2C(=O)N(c3ccc(C4(C(F)(F)F)CC4)cc3)C(=O)C2(C)C)ccn1` [Compound 176, 5,5-dimethyl-1-((2-(((1-methyl-1H-imidazol-5-yl)methyl)amino)pyridin-4-yl)methyl)-3-(4-(1-(trifluoromethyl)cyclopropyl)phenyl) imidazolidine-2,4-dione] is ≤ 0.5 µM; for `CC1(C)C(=O)N(c2ccc(C34CC(C3)C4)cc2)C(=O)N1Cc1ccnc2c1CC(=O)N2` [Compound 32, 3-(4-(bicyclo[1.1.1]pentan-1-yl)phenyl)-5,5-dimethyl-1-((2-oxo-2,3-dihydro-1H-pyrrolo[2,3-b]pyridin-4-yl)methyl)imidazolidine-2,4-dione] it is ≤ 0.5 µM. Regarding `[2H]C([2H])([2H])Nc1cc(CN2C(=O)N(c3ccc(S(=O)(=O)C(F)(F)F)cc3)C(=O)C2(C)C)ccn1` [Compound 408], the IC50 is ≤ 0.5 µM.

As for `CC1(C)C(=O)N(c2ccc3c(c2)N(S(C)(=O)=O)CC32CCC2)C(=O)N1Cc1ccnc(N[C@@H]2C[C@@H]2F)c1` [Compound 240, 1-((2-(((1R,2S)-2-fluorocyclopropyl)amino)pyridin-4-yl)methyl)-5,5-dimethyl-3-(1′-(methylsulfonyl)spiro[cyclobutane-1,3′-indolin]-6′-yl)imidazolidine-2,4-dione], the IC50 is ≤ 0.5 µM. The figure for `CC1(C)C(=O)N(c2ccc(S(=O)(=O)C(F)(F)F)cc2)C(=O)N1Cc1ccnc(N[C@H]2C[C@H]2F)c1` [Compound 357, 1-((2-(((1S,2R)-2-fluorocyclopropyl)amino)pyridin-4-yl)methyl)-5,5-dimethyl-3-(4-((trifluoromethyl)sulfonyl)phenyl)imidazolidine-2,4-dione] is ≤ 0.5 µM; for `C[C@@H](CC#N)Nc1cc(CN2C(=O)N(c3ccc(S(=O)(=O)C(F)(F)F)cc3)C(=O)C2(C)C)ccn1` [Compound 321, (S)-3-((4-((5,5-dimethyl-2,4-dioxo-3-(4-((trifluoromethyl)sulfonyl)phenyl)imidazolidin-1-yl)methyl)pyridin-2-yl)amino)butanenitrile] it is 0.5 to 2 µM. The figure for `CC(C)(C#N)c1ccc(N2C(=O)N(Cc3ccnc4c3CC(=O)N4)C(C)(C)C2=O)cc1` [Compound 29, 2-(4-(4,4-dimethyl-2,5-dioxo-3-((2-oxo-2,3-dihydro-1H-pyrrolo[2,3-b]pyridin-4-yl)methyl)imidazolidin-1-yl)phenyl)-2-methylpropanenitrile] is ≤ 0.5 µM.

For the molecule `COCCC(C)Nc1cc(CN2C(=O)N(c3ccc4c(c3)N(S(C)(=O)=O)CC4(C)C)C(=O)C2(C)C)ccn1` (stereo not shown) [Compound 219, 3-(3,3-dimethyl-1-(methylsulfonyl)indolin-6-yl)-1-((2-((4-methoxybutan-2-yl)amino)pyridin-4-yl)methyl)-5,5-dimethylimidazolidine-2,4-dione], the IC50 was ≤ 0.5 µM.

Regarding `CC1(C)C(=O)N(c2ccc3c(c2)N(S(C)(=O)=O)CC32CCC2)C(=O)N1Cc1ccnc(NC2CCOCC2)c1` [Compound 211, 5,5-dimethyl-3-(1′-(methylsulfonyl)spiro[cyclobutane-1,3′-indolin]-6′-yl)-1-((2-((tetrahydro-2H-pyran-4-yl)amino)pyridin-4-yl)methyl)imidazolidine-2,4-dione], the IC50 is ≤ 0.5 µM. Turning to `CC1(C)CN(S(C)(=O)=O)c2cc(N3C(=O)N(Cc4ccnc(NC5CCOCC5)c4)C(C)(C)C3=O)ccc21` [Compound 209, 3-(3,3-dimethyl-1-(methylsulfonyl)indolin-6-yl)-5,5-dimethyl-1-((2-((tetrahydro-2H-pyran-4-yl)amino)pyridin-4-yl)methyl)imidazolidine-2,4-dione], the IC50 was ≤ 0.5 µM. The figure for `CC(C)OC[C@H](C)Nc1cc(CN2C(=O)N(c3ccc(C4(C(F)(F)F)CC4)cc3)C(=O)C2(C)C)ccn1` [Compound 158, (S)-1-((2-((1-isopropoxypropan-2-yl)amino)pyridin-4-yl)methyl)-5,5-dimethyl-3-(4-(1-(trifluoromethyl)cyclopropyl)phenyl) imidazolidine-2,4-dione] is 0.5 to 2 µM; for `C[C@H]1CNc2nccc(CN3C(=O)N(c4ccc(C5(C(F)(F)F)CC5)cc4)C(=O)C3(C)C)c2O1` [Compound 28, (S)-5,5-dimethyl-1-((2-methyl-3,4-dihydro-2H-pyrido[3,2-b][1,4]oxazin-8-yl)methyl)-3-(4-(1-(trifluoromethyl)cyclopropyl)phenyl) imidazolidine-2,4-dione] it is ≤ 0.5 µM. As to `CC1(C)C(=O)N(c2ccc3c(c2)N(S(C)(=O)=O)CC32CCC2)C(=O)N1Cc1ccnc2c1CC(=O)N2` [Compound 43, 5,5-dimethyl-3-(1′-(methylsulfonyl)spiro[cyclobutane-1,3′-indolin]-6′-yl)-1-((2-oxo-2,3-dihydro-1H-pyrrolo[2,3-b]pyridin-4-yl)methyl)imidazolidine-2,4-dione], the IC50 was ≤ 0.5 µM.
